From BindingDB's records for patent US20250051319 (Augustine Therapeutics, 2025)

Assays:
[1] = molecular target: T1, Histone deacetylase 6 (Homo sapiens, UniProt Q9UBN7); assay: HDAC6 Enzymatic Activity Assay
T1 sequence (Q9UBN7 whole entry): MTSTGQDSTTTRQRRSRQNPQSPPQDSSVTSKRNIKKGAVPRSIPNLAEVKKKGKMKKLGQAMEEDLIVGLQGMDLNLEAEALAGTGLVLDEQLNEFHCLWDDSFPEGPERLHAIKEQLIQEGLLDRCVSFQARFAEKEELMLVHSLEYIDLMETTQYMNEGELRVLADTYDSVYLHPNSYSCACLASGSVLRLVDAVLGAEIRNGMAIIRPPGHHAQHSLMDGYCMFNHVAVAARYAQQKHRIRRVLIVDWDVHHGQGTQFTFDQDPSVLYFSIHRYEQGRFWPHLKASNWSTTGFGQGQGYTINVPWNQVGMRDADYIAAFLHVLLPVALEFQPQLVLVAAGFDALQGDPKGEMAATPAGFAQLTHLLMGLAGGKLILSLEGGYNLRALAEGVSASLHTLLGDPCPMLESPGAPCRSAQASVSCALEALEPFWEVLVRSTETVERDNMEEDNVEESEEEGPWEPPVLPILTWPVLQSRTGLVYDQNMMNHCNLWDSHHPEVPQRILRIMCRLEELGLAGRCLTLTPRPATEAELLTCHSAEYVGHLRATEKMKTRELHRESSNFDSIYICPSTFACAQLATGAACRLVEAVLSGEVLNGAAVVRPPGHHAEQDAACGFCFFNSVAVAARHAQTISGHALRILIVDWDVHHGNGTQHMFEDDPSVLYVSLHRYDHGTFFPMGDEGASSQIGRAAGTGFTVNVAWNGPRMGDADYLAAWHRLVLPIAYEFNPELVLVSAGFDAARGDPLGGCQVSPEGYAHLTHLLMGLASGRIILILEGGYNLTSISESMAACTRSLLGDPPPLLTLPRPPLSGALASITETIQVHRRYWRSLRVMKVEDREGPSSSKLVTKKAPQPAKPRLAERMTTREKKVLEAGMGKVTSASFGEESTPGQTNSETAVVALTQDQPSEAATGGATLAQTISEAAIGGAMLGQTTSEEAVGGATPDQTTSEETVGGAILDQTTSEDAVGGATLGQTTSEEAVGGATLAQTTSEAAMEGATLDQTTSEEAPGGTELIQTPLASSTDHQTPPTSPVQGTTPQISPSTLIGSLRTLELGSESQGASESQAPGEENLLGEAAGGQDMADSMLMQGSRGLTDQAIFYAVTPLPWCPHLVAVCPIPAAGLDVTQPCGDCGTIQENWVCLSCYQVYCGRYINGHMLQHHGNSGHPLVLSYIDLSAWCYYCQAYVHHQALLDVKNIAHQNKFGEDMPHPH
Procedure: Dose response testing of HDAC6 and HDAC 1 were run at Reaction Biology Corporation (RBC). […] 2× enzyme was delivered in the wells of the reaction plate except for the “no enzyme” control wells. In the latter, buffer was added. Compounds in 100% DMSO were delved into the enzyme mixture by acoustic technology (Echo550). Plates are spun down and compounds were incubation with the enzyme for 10 min at room temperature. […] Developer containing Trichostatin A was added to stop the reaction and generate fluorescent color. A kinetic measurement was carried out for 20 min with 5 min interval on the Envision plate reader (Perkin Elmer, Ex/Em=360/460). End point reading i.e., plateau of the development reaction was used for analysis. Data was reported by RBC as percentage enzyme activity. Percentage inhibition was calculated by subtracting percentage enzyme activity from 100. IC50 values were calculated using GraphPad Prism 9 based on the log(inhibitor) vs. response—Variable slope (four parameters) equation.

[2] = molecular target: T2, Histone deacetylase 6 [482-800] (Homo sapiens, UniProt Q9UBN7); assay: Cellular Target Engagement Assay
T2 construct: 482-800
T2 sequence (Q9UBN7 whole entry): T1 sequence (Q9UBN7 whole entry)
Procedure: NanoBRET target engagement was performed against the catalytic domain 2 (CD2) of HDAC6, with minor modifications of kit manufacturer protocol (Promega). Expression of exogenous NanoLuc-HDAC6(CD2) fusion and in HEK293T was achieved following transient transfection with FuGENE HD Transfection Reagent (Promega). […] Compounds (dissolved in 100% DMSO) or DMSO (vehicle) were added either manually by diluting them in culture medium at 8× final assay concentration and then adding 5 μL to assay plate or in an automated way by adding 160 nL compound to 5 μL OptiMEM without phenol red (Gibco) using the Echo650 (Labcyte). Tracer solution was added to the cells before seeding 35 μL cell/tracer mixture in the assay plate. […] Assay plates were incubated at 37° C. in a humidified atmosphere containing 5% C02 for 2 hours. […] BRET ratios were calculated from acceptor/donor signal ratio (mBRET=acceptor/donor*1000) and normalized for each plate. Percentage inhibition was calculated by setting the mBRET obtained with cells without tracer to 100%, while the mBRET obtained with uninhibited cells with tracer was set to 0%. IC50-values were calculated from the percentage inhibition with the log(inhibitor) vs. response—Variable slope (four parameters) nonlinear regression in GraphPad Prism software.

| SMILES | IC50 [1] [nM] | IC50 [2] [nM] |
| --- | --- | --- |
| COCC(=O)NCc1ccc(C(=O)CSc2nc(C)nc3ncc(OC)cc23)s1 [US20250051319, Compound 163] | < 100 | – |
| O=C(CSc1nc(C(F)(F)F)nc2ncccc12)c1ccc(CN2CC[C@@H](O)C2=O)s1 [US20250051319, Compound 155] | – | < 100 |
